According to EPA's ToxValDB 9.5:
Values after ≈ are worked out from the molar mass of the structure shown.

Legend:
Equus caballus [1] = assay: ALD; higher = less toxic; settings: acute; oral; unspecified; mortality
Rattus norvegicus = settings: for LD50: mortality
Phasianus sp. = settings: subchronic; duration: 35 days; oral; feed; food consumption
Numida meleagris = settings: subchronic; duration: 35 days; oral; feed; no effects
Tagia sp. = settings: for LC50: acute, duration: 14 days
Equus caballus [2] = settings: acute; oral; unspecified; mortality
Canidae = settings: Dog Other
Meleagris sp. = settings: chronic/long-term; duration: 16 weeks; oral; feed; M/F; no effects
Mus musculus = settings: acute; oral; F; mortality
Colinus virginianus = settings: for LD50: acute, oral, mortality
Coturnix coturnix = settings: acute; oral; mortality
Anas platyrhynchos = settings: for LC50: short-term, oral, feed, mortality
Bird = settings: acute; oral; unspecified; mortality
Leuciscus idus = settings: acute; duration: 96 hours; mortality
Ovis sp. = settings: subchronic; duration: 59 days; oral; diet; neurology
Sus scrofa = settings: oral, Not specified
Felidae = settings: chronic; duration: 420 days; oral; diet; M/F; Cat; neurology
Bovidae = settings: subchronic; duration: 90 days; neurology
Neovison vison = settings: chronic; duration: 93 days; oral; diet; neurology
Macaca mulatta = settings: chronic; duration: 183 days; oral; capsule; M/F; clinical chemistry
[3] = system: Vigna radiata var. radiata; settings: not reported; other
Pimephales promelas = settings: chronic/long-term; duration: 255 days; growth
Daphnia magna = settings: chronic/long-term; duration: 21 days; reproduction
Coturnix japonica = settings: reproduction developmental
Typhlodromus pyri = assay: LR50; higher = less toxic; settings: not reported; mortality
Bibionidae = settings: chronic/long-term
Aphidius rhopalosiphi = assay: LR50; higher = less toxic; settings: acute; duration: 48 hours; mortality
Apis mellifera = settings: acute, duration: 48 hours, mortality
Gasterosteus aculeatus = settings: acute; duration: 96 hours; mortality
Lepomis macrochirus = settings: acute; duration: 96 hours; mortality
[4] = acute, duration: 96 hours, mortality
[5] = chronic, duration: 2 years, clinical chemistry

CC[C@@H](C(=O)[C@@H](C)[C@@H](O)[C@H](C)CCc1ccc(C)c(O)c1C(=O)[O-])[C@H]1O[C@](CC)([C@H]2CC[C@](O)(CC)[C@H](C)O2)C[C@@H]1C.[Na+] [Lasalocid sodium]
ALD (Equus caballus [1]): 15 mg/kg | LEL (Gallus gallus; subchronic, duration: 13 weeks, M/F, growth): 225 mg/kg-day | NOEL (Rattus norvegicus; chronic, duration: 2 years, oral, M, organ weight): 0.5 mg/kg-day | LEL (Phasianus sp.): 180 mg/kg | LEL (Numida meleagris): 240 mg/kg | NOEL (Oryctolagus sp.; developmental, duration: 23 days, oral, gavage, F, New Zealand, development): 0.5 mg/kg-day | LC50 (Tagia sp.; mortality): 71.8 mg/kg | LD50 (Equus caballus [2]): 15 mg/kg | LEL (Canidae; repeat dose other, oral, diet, clinical signs): 5 mg/kg-day | LC50 (Danio rerio; [4]): 2.5 µg/mL | LEL (Meleagris sp.): 375 mg/kg

CCOP(=S)(OCC)Oc1nc(Cl)c(Cl)cc1Cl [Chlorpyrifos]
NOAEL (Rattus norvegicus; acute, clinical chemistry): 0.5 mg/kg-day | NOAEL (Rattus norvegicus; [5]): 0.1 mg/kg-day | NOAEL (Rattus norvegicus; reproduction developmental): 1 mg/kg-day | NOAEL (Rattus norvegicus; reproduction developmental, clinical chemistry): 0.1 mg/kg-day | LD50 (Mus musculus): 64 mg/kg | LD50 (Colinus virginianus; duration: 1 hours): 75 mg/kg | NOAEL (Canidae; [5]): 0.1 mg/kg-day | LD50 (Coturnix coturnix): 13.3 mg/kg | NOEC (Anas platyrhynchos; reproductive, reproduction): 2.88 mg/kg-day | LC50 (Anas platyrhynchos): 71 mg/kg-day | LD50 (Bird): 122 mg/kg

CN(C)C.Cl [Trimethylamine hydrochloride]
NOAEL (Rattus norvegicus; subchronic, duration: 90 days): 144 mg/kg-day | LC50 (Leuciscus idus): > 500 µg/mL

[CH3][Hg+] [Methyl mercury(II) cation]
NOAEL (Gallus gallus; reproduction developmental, duration: 50 days, F, reproduction): 0.75 mg/kg-day | LOAEL (Ovis sp.): 0.225 mg/kg-day | NOAEL (Sus scrofa; subchronic, duration: 60 days, diet, histopathology: nonneoplastic): 0.19 mg/kg-day | LOAEL (Canidae; chronic, duration: 385 days, oral, neurology): 0.12 mg/kg-day | NOAEL (Felidae): 0.02 mg/kg-day | LOAEL (Anas platyrhynchos; reproductive, development): 5 mg/kg | NOAEL (Bovidae): 0.1 mg/kg-day | NOAEL (Oncorhynchus mykiss; chronic/long-term, duration: 112 days, oral, feed, hematological): 0.17 mg/kg-day | LOAEL (Neovison vison): 0.18 mg/kg-day

O=S(=O)(O)C(F)(F)C(F)(F)C(F)(F)C(F)(F)C(F)(F)C(F)(F)C(F)(F)C(F)(F)F [Perfluorooctanesulfonic acid]
NOAEL (Macaca mulatta): 0.03 mg/kg-day

Cc1cc(C)[nH]c(=O)n1 [4,6-Dimethylpyrimidin-2-ol]
NOEC [3]: 2.63 mg/kg | LC50 (Tagia sp.; no effects): > 1000 mg/kg

O=C(O)CNCP(=O)(O)O [Glyphosate]
LD50 (Rattus norvegicus; acute, oral): > 2000 mg/kg-day | LD50 (Colinus virginianus): 4330 mg/kg-day | NOEL (Colinus virginianus; reproduction developmental): 96.3 mg/kg-day | NOAEL (Oryctolagus sp.; chronic): 50 mg/kg-day | NOEC (Pimephales promelas): 25.7 mg/L | NOEC (Danio rerio; short-term, duration: 168 hours, growth): 1 mg/L | NOEC (Daphnia magna): 12.5 mg/L | NOEL (Anas platyrhynchos; reproductive): 125 mg/kg-day

O=c1oc2ccccc2c(O)c1C1CC(c2ccc(-c3ccccc3)cc2)Cc2ccccc21 (stereo not drawn) [Difenacoum]
LD50 (Rattus norvegicus; acute, oral): 1.8 mg/kg-day | LD50 (Sus scrofa; acute, mortality): 80 mg/kg-day | LD50 (Colinus virginianus): 56 mg/kg-day | NOAEL (Oryctolagus sp.; reproduction developmental, hematological): 0.005 mg/kg-day | LD50 (Canidae; acute, oral, mortality): 50 mg/kg-day | LC50 (Anas platyrhynchos): 3.5 mg/kg-day | LC50 (Oncorhynchus mykiss; [4]): 0.064 µg/mL (≈ 0.144 µM) | NOEC (Coturnix japonica): > 0.01 mg/kg-day

Nc1c(Cl)cc([N+](=O)[O-])cc1Cl [1-Amino-2,6-dichloro-4-nitrobenzene]
LR50 (Typhlodromus pyri): 374 g/ha | NOEL (Rattus norvegicus; reproduction developmental, body weight): 19 mg/kg-day | NOEC (Colinus virginianus; reproduction developmental): 35.2 mg/kg-day | NOEC (Tagia sp.; chronic/long-term, duration: 56 days): 77.8 mg/kg | NOAEL (Canidae; chronic, duration: 1 years, oral, hematological): 2.5 mg/kg-day | NOEC (Daphnia magna): 0.032 mg/L | NOEC (Bibionidae): 0.6 mg/L | NOEC (Oncorhynchus mykiss; chronic/long-term, duration: 28 days, growth): 0.05 mg/L

CCOC(=O)CC(SP(=S)(OC)OC)C(=O)OCC (stereo not drawn) [Malathion]
LR50 (Aphidius rhopalosiphi): 0.0612 g/ha | NOAEL (Rattus norvegicus; chronic, duration: 2 years, neurology): 29 mg/kg-day | NOAEL (Rattus norvegicus; subchronic, duration: 90 days, neurology): 34 mg/kg-day | LC50 (Tagia sp.; mortality): 613 mg/kg | LD50 (Apis mellifera; dermal): 0.16 µg/piece | NOEC (Daphnia magna): 6e-05 mg/L | LC50 (Gasterosteus aculeatus): 0.022 µg/mL (≈ 0.0666 µM) | NOEC (Oncorhynchus mykiss; chronic/long-term, duration: 97 days, morphology): 0.021 mg/L

CC(COc1ccc(Oc2ccccc2)cc1)Oc1ccccn1 (stereo not drawn) [Pyriproxyfen]
LC50 (Lepomis macrochirus): > 0.27 µg/mL | LD50 (Apis mellifera; oral, unspecified): 74 µg/piece | NOEC (Daphnia magna): 1.5e-05 mg/L | NOEC (Bibionidae; duration: 28 days, other): 0.01 mg/L | NOEC (Oncorhynchus mykiss; chronic/long-term, duration: 95 days): 0.0043 mg/L
